From the supplement of paper PMC7801607

test system: Plasmodium falciparum NF54 asexual blood stage

Row | IC50 [µM] | Compound
1 | > 6 | COc1ccc(CNC(=O)C2CCN([C@H](C)c3cccc4ccccc34)CC2)cc1
2 | 2.85 | CC(C)(C)NC(=O)[C@@H]1CN(Cc2cnc3occc3c2)CCN1C[C@@H](O)C[C@@H](Cc1ccccc1)C(=O)N[C@H]1c2ccccc2C[C@H]1O
3 | 0.703 | CCc1nc(N)nc(N)c1C#CCc1ccccc1
4 | 3.65 | Cn1cncc1[C@@](N)(c1ccc(Cl)cc1)c1ccc2c(c1)c(-c1cccc(Cl)c1)cc(=O)n2C

test system: Plasmodium falciparum Dd2 asexual blood stage

Row | IC50 [µM] | Compound
5 | > 5 | COc1ccc(CNC(=O)C2CCN([C@H](C)c3cccc4ccccc34)CC2)cc1
6 | 2.29 | CC(C)(C)NC(=O)[C@@H]1CN(Cc2cnc3occc3c2)CCN1C[C@@H](O)C[C@@H](Cc1ccccc1)C(=O)N[C@H]1c2ccccc2C[C@H]1O
7 | > 5 | CCc1nc(N)nc(N)c1C#CCc1ccccc1
8 | > 5 | Cn1cncc1[C@@](N)(c1ccc(Cl)cc1)c1ccc2c(c1)c(-c1cccc(Cl)c1)cc(=O)n2C
9 | > 5 | CCc1cc(CCC(=O)Nc2ccccc2O)c(=O)[nH]c1C
10 | > 5 | CC1(C)[C@H](C(=O)O)N2C(=O)C[C@H]2S1(=O)=O
11 | > 5 | CC[C@@H](CO)NCCN[C@@H](CC)CO
12 | > 5 | CCn1cc(C(=O)O)c(=O)c2cc(F)c(N3CCNC(C)C3)c(F)c21 (stereo not given)
13 | > 5 | O=C(Cc1ccccc1F)Nc1nc2ccccc2[nH]1
14 | > 5 | CC(=O)N1CCN(c2ccc(OCC3COC(Cn4ccnc4)(c4ccc(Cl)cc4Cl)O3)cc2)CC1 (stereo not given)
15 | > 5 | CC(C)N(c1cc(-c2ccccc2)sc1C(=O)O)C(=O)[C@H]1CC[C@H](C)CC1
16 | > 5 | COc1cccc(N2CCN(C3=Nc4c(F)cccc4[C@H](CC(=O)O)N3c3cc(C(F)(F)F)ccc3OC)CC2)c1
17 | > 5 | CC(C)(C)NC(=O)N[C@H](C(=O)N1C[C@H]2[C@@H]([C@H]1C(=O)NC(CC1CCC1)C(=O)C(N)=O)C2(C)C)C(C)(C)C (stereo not given in full)
18 | > 5 | Nc1nc(-c2ccccc2)nc2c1ncn2[C@@H]1O[C@H](COS(=O)(=O)NC(=O)c2ccccc2O)[C@@H](O)[C@H]1O
19 | > 5 | OC(Cn1cncn1)(Cn1cncn1)c1ccc(F)cc1F
20 | 1.79 | CCCCOC(=O)Nc1cc2nc(C3CCCCC3)[nH]c2cc1N(CC)CC
21 | > 5 | COc1ccc2sc3c(c2c1)NC(C)CNC3=O (stereo not given)
22 | > 5 | CC1(C)CC(NC(=O)C(=O)Nc2ccc(Cl)cc2)CC(C)(C)N1
23 | > 5 | COc1ccc(-n2cnc3cc(NCc4ccco4)ccc32)cc1
24 | > 5 | O=c1oc2ccc(Br)cc2cc1CSc1ncc[nH]1
25 | > 5 | CCc1c(OCC2CCC2)c2cc(F)ccc2[nH]c1=O
26 | > 5 | COc1cc(C(C(=O)NC2CCCCC2)N(C(=O)Cc2c[nH]c3ccccc23)c2ccc(C(C)C)cc2)cc(OC)c1OC (stereo not given)
27 | > 5 | NC(=O)C(c1ccccc1)(c1ccccc1)[C@H]1CCCN(CCc2ccc3c(c2)CCO3)C1
28 | > 5 | NC(=O)c1cnccn1
29 | > 5 | O=C(Nc1ccc(Cl)c(C(F)(F)F)c1)C(CCCl)C(=O)Nc1ccc(Cl)c(C(F)(F)F)c1

Row | IC50 [µM] | Compound
30 | > 5 | C[C@H]1CC[C@@]2(O)C(C)(C)[C@@H]3CC[C@@]2(C)[C@H]1C3
31 | > 5 | CN(C)c1[nH]c(=O)ncc1F
32 | > 5 | Clc1ccc(COC(Cn2ccnc2)c2ccc(Cl)cc2Cl)c(Cl)c1 (stereo not given)
33 | > 5 | C[C@@H](NC(=O)c1ccccc1-c1ccccc1)B(O)O
34 | > 5 | Oc1cc(-c2cccc3ccccc23)[nH]n1
35 | > 5 | O=S(=O)(Nc1ccc(O)cc1)c1cccc2cccnc12
36 | > 5 | Cc1ncc([N+](=O)[O-])n1CC(C)O (stereo not given)
37 | > 5 | CCCNc1ccc(S(=O)(=O)Nc2cc(C)on2)cc1
38 | > 5 | C=C(C)n1c(=O)n(Cc2ccccc2C)c2ccccc21
39 | > 5 | O=C(O)CCNC(=O)c1ccccc1
40 | > 5 | FC(F)(F)Oc1ccc(Nc2ccc3cccc(Cl)c3n2)cc1
41 | > 5 | O=C(O)COc1cccc2c1CC[C@](O)(COC(=O)N(c1ccccc1)c1ccccc1)C2
42 | > 5 | Cc1ccc(Oc2ccccc2-c2csc(NC3=NCCCN3)n2)c(C)c1
43 | > 5 | CCc1ccc(C2CC(C(F)(F)F)n3ncc(C(=O)NCc4ccc(OC)cc4)c3N2)cc1 (stereo not given)
44 | > 5 | COc1ccc(COc2cc3oc(=O)c4cc(C(C)O)ccc4c3cc2OC)cc1 (stereo not given)
45 | > 5 | O[C@@](Cn1cnnn1)(c1ccc(F)cc1F)C(F)(F)c1ccc(-c2ccc(OCC(F)(F)F)cc2)cn1
46 | > 5 | O=C(N[C@H](CCS)C(=O)N[C@H](Cc1ccccc1)C(=O)O)c1cc2ccccc2[nH]1
47 | > 5 | CCC(CC)[C@H](NC(C)=O)[C@@H]1[C@H](O)[C@@H](C(=O)O)C[C@H]1NC(=N)N
48 | > 5 | O=C(NCc1ccc2c3c(cccc13)C(=O)N2)c1cccs1
49 | > 5 | Cc1nc(Nc2ccc(F)cc2)nc(N2CCc3ccccc3C2C)c1C (stereo not given)
50 | > 5 | O=C(Nc1nnc(-c2ccc(Cl)cc2)o1)c1ccc(F)cc1
51 | > 5 | CC(=O)Oc1ccccc1C(=O)Nc1ncc([N+](=O)[O-])s1
52 | > 5 | C[C@@H](O)[C@H](N)C(=O)NS(=O)(=O)c1cccc(-c2ccc3[nH]ncc3c2)c1
53 | > 5 | COc1ccc(C2CNC(=O)C2)cc1OC1CCCC1 (stereo not given)
54 | > 5 | CC(=O)N[C@H](C)C(=O)N[C@H](Cc1ccccc1)C(=O)O

Row | IC50 [µM] | Compound
55 | > 5 | Cc1ccccc1NC(=O)Nc1cccc([N+](=O)[O-])c1
56 | > 5 | C[C@H]1[C@@H](c2cccc(C(F)(F)F)c2)OC(=O)N1C(=O)NCc1cncc2ccccc12
57 | > 5 | Nc1nc(O)c2ncn(COCCO)c2n1
58 | > 5 | CCNC(=O)Nc1cn2c(-c3ncc(CC)cn3)cc(-c3cccnc3)cc2n1
59 | > 5 | CC(C)(C)c1cc(CCC(=O)N2CCC2)cc(C(C)(C)C)c1O
60 | > 5 | C/C(=N\NC(=O)C1CC1c1ccccc1)c1ccc(NC(=O)c2ccco2)cc1 (stereo not given)
61 | > 5 | CC[N+]1(C/C2=C/CCCCCC2)CCC(NC(=O)C2c3cc(Cl)ccc3Oc3ccc(Cl)cc32)CC1 (stereo not given)
62 | > 5 | O=C(c1nc2c(C(F)(F)F)cc(C3CC3)cn2c1Cl)N1CCN([C@H]2CC[C@H](O)CC2)C(=O)C1
63 | > 5 | O=C1[C@H](CC[C@H](O)c2ccc(F)cc2)[C@@H](c2ccc(O)cc2)N1c1ccc(F)cc1
64 | > 5 | Cc1cc(O)c2c(c1)C(=O)c1c(I)c(O)c(I)c(O)c1C2=O
65 | > 5 | Fc1ccc(-n2cc(Cn3c(-c4cccc(F)c4)nc4ccccc43)nn2)cc1
66 | > 5 | O=[N+]([O-])c1cn(Cc2nc(O)nc(O)c2Br)cn1
67 | > 5 | O=S(=O)(Nc1ccccc1)c1ccc(NC(=S)Nc2ccccc2)cc1
68 | > 5 | O=[N+]([O-])c1cn2c(n1)OC[C@@H](OCc1ccc(OC(F)(F)F)cc1)C2
69 | > 5 | NC(=O)c1c(N)sc2c1CCCCC2
70 | > 5 | CNc1nc(=O)[nH]cc1F
71 | > 5 | CCc1nc2ccccn2c1C(=O)NCc1ccccc1
72 | > 5 | Cc1onc(-c2ccccc2)c1-c1ccc(S(N)(=O)=O)cc1
73 | > 5 | O=C(CC1Sc2ncnn2C1=O)Nc1ccc(Br)cc1 (stereo not given)
74 | > 5 | O=C(NCc1ccccc1Cl)c1cnc2ccccc2n1
75 | > 5 | O=C(NC(=O)N1CCCc2ccccc21)c1ccc(Cl)cc1Cl
76 | > 5 | CCCC1(C2CC2)c2cc(Cl)ccc2NC(=O)N1C (stereo not given)
77 | > 5 | NC(=O)c1nccn([C@@H]2O[C@H](CO)[C@@H](O)[C@H]2O)c1=O
78 | > 5 | CC(C)(C)c1ccc(OCCn2nc(C(=O)O)c3ccccc3c2=O)cc1
79 | > 5 | Cc1c(CN(C)C(=O)/C=C/c2cnc3c(c2)C(C)(C)C(=O)N3)oc2ccccc12

Row | IC50 [µM] | Compound
80 | > 5 | O=C(N[C@H](Cc1cccc2ccccc12)C(=O)NCCc1c[nH]cn1)C1Cc2ccccc2C1
81 | > 5 | CC(C)(C)c1cc(C(=O)/C(C#N)=N/Nc2cccc(Cl)c2)no1
82 | > 5 | N#C/C(=C1/SC[C@H](c2ccc(Cl)cc2Cl)S1)n1ccnc1
83 | > 5 | O=S(=O)(NCB(O)O)c1ccc(-c2nnn[nH]2)cc1C(F)(F)F
84 | > 5 | CONC(=N)c1ccc(-c2ccc(-c3ccc(C(=N)NOC)cc3)o2)cc1
85 | > 5 | CCOc1ccc(/C=N/NC(=O)C2CC2c2ccc(C(C)(C)C)cc2)cc1OCC (stereo not given)
86 | > 5 | NC(=O)c1cnc2ccc(S(=O)(=O)c3ccccc3)cc2c1Nc1ccc(O)cc1
87 | > 5 | C=CCc1cc(Cc2cnc(N)nc2N)cc(OC)c1O
88 | > 5 | CCCCCCCCC(CP(=O)(O)C(C)N)C(=O)O (stereo not given)
89 | > 5 | O=C(O)c1ccc(-n2nc(-c3ccccc3O)nc2-c2ccccc2O)cc1
90 | > 5 | CCc1cc(Nc2cc(=O)n(CCN3CCN(C(=O)c4ccccc4)CC3)c(=O)[nH]2)ccc1C
91 | > 5 | COc1ccc(C)cc1NC(=O)c1ccc(S(=O)(=O)N2CCCCC2)cc1
92 | > 5 | COc1ccc2c(c1)cc(CNC(=O)c1cc3ccccc3o1)n2CC(=O)O
93 | > 5 | COc1cc2c(O)c3c(c(-c4ccc5c(c4)OCO5)c2cc1OC)C(=O)OC3
94 | > 5 | NC[C@H]1O[C@H](O[C@H]2[C@H](O)[C@@H](O[C@H]3O[C@H](CO)[C@@H](O)[C@H](N)[C@H]3O)[C@H](N)C[C@@H]2N)[C@H](N)C[C@@H]1O
95 | > 5 | COc1ccccc1NC(=O)c1ccccc1Sc1ccc([N+](=O)[O-])cc1
96 | > 5 | CCCCSc1nc(N)c2[nH]c(=O)c(=O)n(Cc3ccccc3)c2n1
97 | > 5 | CCc1cc(Cc2cnc(N)nc2N)cc2c1N(C)CCC2C (stereo not given)
98 | 4.12 | CC[C@@]1(O)C(=O)OCc2c1cc1n(c2=O)Cc2cc3c(CN(C)C)c(O)ccc3nc2-1
99 | > 5 | CCc1cc(O)c(Oc2cccnc2N)cc1F
100 | > 5 | CC(C)(C)OC(=O)NCc1ccc(C(=O)N[C@H]2CCOC2=O)cc1
101 | > 5 | C[C@H](NC(=O)C(=O)Nc1ccccc1C(C)(C)C)C(=O)N[C@@H](CC(=O)O)C(=O)COc1c(F)c(F)cc(F)c1F
102 | > 5 | Fc1ccc2c(/C=C/c3nnn[nH]3)c[nH]c2c1

Row | Compound | IC50 [µM]
103 | CN1C(=O)C(c2ccccc2)C(=O)N(c2ccccc2)c2cc(C(F)(F)F)ccc21 (stereo not given) | > 5
104 | COc1cc(C(C)(C)CCCC(C)C)cc(OC)c1OC | > 5
105 | CC(C)Oc1cccc(NC(=O)c2ccccc2C(F)(F)F)c1 | > 5
